Type in all cases: cell-based
The target of one assay is T1, human TLR7 (Homo sapiens, UniProt Q9NYK1).
T1 construct: host or cells: HEK-Blue cells
T1 sequence (Q9NYK1 27-1049): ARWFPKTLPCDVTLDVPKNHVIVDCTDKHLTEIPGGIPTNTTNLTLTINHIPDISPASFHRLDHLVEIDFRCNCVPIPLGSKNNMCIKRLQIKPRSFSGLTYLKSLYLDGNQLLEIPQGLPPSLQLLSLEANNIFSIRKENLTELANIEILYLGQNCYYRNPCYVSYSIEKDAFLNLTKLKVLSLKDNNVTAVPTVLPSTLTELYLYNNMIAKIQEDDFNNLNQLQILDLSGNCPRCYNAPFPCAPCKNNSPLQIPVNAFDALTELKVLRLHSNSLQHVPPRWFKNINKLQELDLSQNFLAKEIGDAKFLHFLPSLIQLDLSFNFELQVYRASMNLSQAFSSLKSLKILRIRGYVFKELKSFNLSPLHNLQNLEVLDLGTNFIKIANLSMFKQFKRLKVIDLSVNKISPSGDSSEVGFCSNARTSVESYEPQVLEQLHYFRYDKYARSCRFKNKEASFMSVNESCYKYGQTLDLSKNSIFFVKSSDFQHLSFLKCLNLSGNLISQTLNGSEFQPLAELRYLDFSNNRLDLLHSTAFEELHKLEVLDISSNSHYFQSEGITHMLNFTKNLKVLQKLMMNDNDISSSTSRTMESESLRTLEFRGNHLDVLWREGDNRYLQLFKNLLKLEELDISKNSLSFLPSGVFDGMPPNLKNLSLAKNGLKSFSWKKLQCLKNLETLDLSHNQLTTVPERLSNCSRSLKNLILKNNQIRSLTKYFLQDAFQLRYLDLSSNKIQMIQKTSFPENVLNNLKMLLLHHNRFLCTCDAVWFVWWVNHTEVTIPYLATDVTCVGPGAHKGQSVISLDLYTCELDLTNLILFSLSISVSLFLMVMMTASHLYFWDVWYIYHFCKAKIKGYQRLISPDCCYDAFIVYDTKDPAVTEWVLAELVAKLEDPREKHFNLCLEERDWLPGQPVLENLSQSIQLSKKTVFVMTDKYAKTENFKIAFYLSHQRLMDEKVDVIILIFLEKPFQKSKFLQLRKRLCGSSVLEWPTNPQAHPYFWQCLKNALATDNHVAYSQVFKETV
Kind of assay: TLR7 inhibition reporter assay (HEK-Blue cells, SEAP reporter, gardiquimod stimulation). Conditions: HEK-Blue cells overexpressing human TLR7, SEAP reporter, gardiquimod 7.5 μM. In outline: (§1)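 SEAP readout after 22 h agonist exposure at 37 °C; final agonist levels were 7.5 μM gardiquimod (TLR7), 15.9 μM R848 (TLR8) and 5 nM ODN2006 (TLR9). Inhibitors, spanning 0.05 nM to 50 μM final, were applied 30 min beforehand.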
On the technique in general: In a reporter assay the amount or activity of a reporter protein is the signal.

The target of the next assay is T2, human TLR9 (Homo sapiens, UniProt Q9NR96).
T2 construct: host or cells: HEK-Blue cells
T2 sequence (Q9NR96 26-1032): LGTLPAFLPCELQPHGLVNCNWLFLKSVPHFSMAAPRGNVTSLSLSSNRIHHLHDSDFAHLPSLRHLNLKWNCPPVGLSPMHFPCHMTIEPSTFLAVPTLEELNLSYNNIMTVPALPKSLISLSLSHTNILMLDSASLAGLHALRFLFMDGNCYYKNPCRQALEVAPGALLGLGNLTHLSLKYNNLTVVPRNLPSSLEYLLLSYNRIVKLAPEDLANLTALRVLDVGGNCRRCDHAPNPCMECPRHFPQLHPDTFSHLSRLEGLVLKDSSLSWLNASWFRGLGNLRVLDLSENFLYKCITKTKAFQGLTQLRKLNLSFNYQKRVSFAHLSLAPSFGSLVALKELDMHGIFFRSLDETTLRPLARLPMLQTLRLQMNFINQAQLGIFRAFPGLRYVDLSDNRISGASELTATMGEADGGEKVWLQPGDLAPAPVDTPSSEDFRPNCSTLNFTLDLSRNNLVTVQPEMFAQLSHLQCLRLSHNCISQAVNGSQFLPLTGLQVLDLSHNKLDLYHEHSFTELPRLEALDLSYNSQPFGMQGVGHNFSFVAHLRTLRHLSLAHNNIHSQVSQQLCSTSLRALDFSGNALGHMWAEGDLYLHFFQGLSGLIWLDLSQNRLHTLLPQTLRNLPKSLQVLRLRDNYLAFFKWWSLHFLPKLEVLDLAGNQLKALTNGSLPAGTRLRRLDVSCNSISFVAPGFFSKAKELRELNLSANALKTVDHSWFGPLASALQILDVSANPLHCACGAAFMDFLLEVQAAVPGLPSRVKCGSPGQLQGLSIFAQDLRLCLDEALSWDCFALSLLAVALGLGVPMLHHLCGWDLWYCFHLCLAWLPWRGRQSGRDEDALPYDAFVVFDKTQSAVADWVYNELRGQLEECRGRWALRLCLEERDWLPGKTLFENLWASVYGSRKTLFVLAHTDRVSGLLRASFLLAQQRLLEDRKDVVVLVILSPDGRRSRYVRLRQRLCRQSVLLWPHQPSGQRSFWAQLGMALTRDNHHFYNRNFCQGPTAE
Kind of assay: TLR9 inhibition reporter assay (HEK-Blue cells, SEAP reporter, ODN2006 stimulation). Conditions: HEK-Blue cells overexpressing human TLR9, SEAP reporter, ODN2006 5 nM. In short, it runs like this:
as §1

A further assay has as its target T3, human TLR8 (Homo sapiens, UniProt Q9NR97).
T3 construct: host or cells: HEK-Blue cells
T3 sequence (Q9NR97 27-1041): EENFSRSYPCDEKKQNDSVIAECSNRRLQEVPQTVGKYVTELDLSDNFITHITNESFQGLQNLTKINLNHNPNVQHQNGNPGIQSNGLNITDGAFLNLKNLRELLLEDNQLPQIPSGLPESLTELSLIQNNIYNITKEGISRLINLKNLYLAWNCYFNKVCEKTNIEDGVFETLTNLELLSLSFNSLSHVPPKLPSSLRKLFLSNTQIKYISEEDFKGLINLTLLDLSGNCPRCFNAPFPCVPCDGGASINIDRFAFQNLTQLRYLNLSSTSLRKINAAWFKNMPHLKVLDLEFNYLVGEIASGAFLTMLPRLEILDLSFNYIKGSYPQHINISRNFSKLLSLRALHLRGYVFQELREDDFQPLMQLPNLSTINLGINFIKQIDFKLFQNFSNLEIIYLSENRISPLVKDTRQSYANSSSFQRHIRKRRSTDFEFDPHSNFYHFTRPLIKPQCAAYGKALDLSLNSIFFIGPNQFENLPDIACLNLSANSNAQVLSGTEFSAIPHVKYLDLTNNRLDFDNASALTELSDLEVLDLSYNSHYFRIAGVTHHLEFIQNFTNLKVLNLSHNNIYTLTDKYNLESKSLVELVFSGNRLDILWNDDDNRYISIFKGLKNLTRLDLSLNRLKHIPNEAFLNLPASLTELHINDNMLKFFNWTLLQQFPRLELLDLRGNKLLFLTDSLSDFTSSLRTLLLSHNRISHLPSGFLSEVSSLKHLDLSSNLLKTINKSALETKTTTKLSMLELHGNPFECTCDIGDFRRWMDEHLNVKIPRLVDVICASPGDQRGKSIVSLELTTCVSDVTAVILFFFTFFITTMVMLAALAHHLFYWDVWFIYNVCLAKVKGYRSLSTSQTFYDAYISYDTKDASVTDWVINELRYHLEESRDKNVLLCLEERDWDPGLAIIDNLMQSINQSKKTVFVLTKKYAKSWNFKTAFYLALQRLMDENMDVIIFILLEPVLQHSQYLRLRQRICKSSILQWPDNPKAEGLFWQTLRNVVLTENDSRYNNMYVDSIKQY
The assay can be described thus: TLR8 inhibition reporter assay (HEK-Blue cells, SEAP reporter, R848 stimulation). Conditions: HEK-Blue cells overexpressing human TLR8, SEAP reporter, R848 15.9 μM. In short, it runs like this:
as §1

The values that follow come from patent US11878975B2, “Substituted indole compounds useful as TLR inhibitors” (BRISTOL-MYERS SQUIBB COMPANY, priority 2017, dated 2024).

SMILES strings stand for the structures. pIC50: −log10 of the molar value.

What is called pIC50 is −log10 of the IC50, conventionally taken in molar units. High values mean a small IC50, low ones a large IC50. In the case of `Cc1cc(-c2[nH]c3ccc(C4CN(CC(=O)N(C)C)CCO4)cc3c2C(C)C)cn2ncnc12` (single isomer, unassigned) [Example 308], the pIC50 was 8.10 against human TLR7, less than 4.30 at human TLR9 and 7.74 at human TLR8.

Turning to `Cc1c(-c2[nH]c3ccc(C4CN(C5COC5)C4)cc3c2C(C)C)cn(C)c(=O)c1C` [Example 485], the figures for the pIC50 at human TLR7, against human TLR9 and against human TLR8 were 7.34, 4.32 and 7.57, respectively.

Consider `CNC(=O)CN1CC2CC(c3ccc4[nH]c(-c5cn6ncnc6c(C)c5C)c(C(C)C)c4c3)CC2C1` (stereo not drawn) [Example 510], for which the pIC50 against human TLR7 was 8.70; against human TLR9, 4.68; at human TLR8 it was 7.92.

For `COc1cc(-c2[nH]c3ccc(C4CCCN(C(C)C)C4)cc3c2C(C)C)cn2ncnc12` (stereo not drawn) [Example 236, 6-(3-isopropyl-5-(1-isopropylpiperidin-3-yl)-1H-indol-2-yl)-8-methoxy-[1,2,4]triazolo[1,5-a]pyridine], the negative-log IC50 (pIC50) is 9.00 against human TLR7, 5.90 on human TLR9 and 9.34 on human TLR8.

Turning to `CCc1c(-c2ccnc(C)c2)[nH]c2ccc(CNC(=O)N3CCN(C)CC3)cc12` [Example 448], the values for the negative-log IC50 (pIC50) on human TLR7, at human TLR9 and on human TLR8 were 5.82, 5.90 and 6.87, respectively.

On to `COc1cc(-c2[nH]c3ccc(C4CC5CN(CC(=O)N(C)C)CC5C4)cc3c2C(C)C)cn2ncnc12` (stereo not drawn) [Example 509], for which the pIC50 at human TLR7 is 9.57; at human TLR9, 5.63; at human TLR8 it was 8.62.

In the case of `Cc1cc(-c2[nH]c3ccc(C4CN(CC(=O)N(C)C)CCO4)cc3c2C(C)C)cc(C)n1` (stereo not drawn) [Example 326], the pIC50 was 7.12 on human TLR7, 4.71 against human TLR9 and 7.55 against human TLR8.

Take `CNC(=O)CN1CC(c2ccc3[nH]c(-c4cn5ncnc5c(C)c4C)c(C(C)C)c3c2)OCC1(C)C` (stereo not drawn) [Example 389]: the pIC50 was 7.66 against human TLR7, less than 4.30 on human TLR9 and 7.29 on human TLR8.

As for `Cc1cc(-c2[nH]c3ccc(C4CCC(NC5(C)COC5)CC4)cc3c2C(C)C)cn2ncnc12` (single isomer, unassigned) [Example 46], the pIC50 was 10.00 against human TLR7, 5.82 against human TLR9 and 9.08 at human TLR8.

Consider `COc1cc(-c2[nH]c3ccc(C4CCCN(CC(N)=O)C4)cc3c2C(C)C)cn2ncnc12` (stereo not drawn) [Example 234], for which the pIC50 against human TLR7 is 8.52; against human TLR9, 5.13; on human TLR8, 8.24.

On to `Cc1cc(-c2[nH]c3ccc(C4CN(CCS(C)(=O)=O)CCO4)cc3c2C(C)C)cc(C)n1` (stereo not drawn) [Example 351], for which the pIC50 against human TLR7 was 7.55; at human TLR9 it was 4.32; at human TLR8, 7.51.

In the case of `Cc1cc(-c2[nH]c3ccc(C4CCC(O)CC4)cc3c2C(C)C)cc(C)n1` (single isomer, unassigned) [Example 171, 4-(2-(2,6-dimethylpyridin-4-yl)-3-isopropyl-1H-indol-5-yl)cyclohexanol], the pIC50 on human TLR7 was 7.57; at human TLR9, less than 4.30; against human TLR8 it was 6.67.

`COc1ccc(-c2[nH]c3ccc(C4CCC(O)CC4)cc3c2C(C)C)cc1OC` (stereo not drawn) [Example 452]: the values for the pIC50 on human TLR7, against human TLR9 and on human TLR8 were 6.62, 4.33 and 6.13, respectively.

Take `Cc1c(-c2[nH]c3ccc(C4CN(CC(N)=O)CCO4)cc3c2C(C)C)cn2ncnc2c1C` (stereo not drawn) [Example 320]: the pIC50 on human TLR7 is 7.80; against human TLR9, less than 4.30; against human TLR8, 7.27.

For `CNCCN1CCCC(c2ccc3[nH]c(-c4ccnc(C)c4)c(C(C)C)c3c2)C1` (stereo not drawn) [Example 255], the pIC50 was 7.72 at human TLR7, 6.80 at human TLR9 and 8.28 against human TLR8.

As for `Cc1cc(-c2[nH]c3ccc(C4CCC(C)(O)CC4)cc3c2C(C)C)cc(C)n1` (single isomer, unassigned) [Example 169], the pIC50 is 7.54 against human TLR7, 4.38 against human TLR9 and 6.53 against human TLR8.

Take `Cc1cc(-c2[nH]c3ccc(C4CN(CC(=O)N(C)C)C4)cc3c2C(C)C)cn2ncnc12` [Example 261]: the pIC50 was 8.40 at human TLR7, 5.48 at human TLR9 and 7.96 at human TLR8.

For the molecule `Cc1c(-c2[nH]c3ccc(C4CC(N)C4)cc3c2C(C)C)cn(C)c(=O)c1C` (stereo not drawn) [Example 493], the pIC50 on human TLR7 was 7.80; against human TLR9 it was 5.38; against human TLR8 it was 8.34.

In the case of `COc1cc(-c2[nH]c3ccc(C4CN(C(C)C)C4)cc3c2C(C)C)cn2ncnc12` [Example 272], the pIC50 against human TLR7 was 9.08; against human TLR9, 5.88; against human TLR8, 8.68.

In the case of `Cc1cc(-c2[nH]c3ccc(C4CCC(N5CCOCC5)CC4)cc3c2C(C)C)cc(C)n1` (stereo not drawn) [Example 497], the pIC50 on human TLR7 was 9.00; against human TLR9, 6.19; at human TLR8, 8.64.

For the molecule `COc1cc(-c2[nH]c3ccc(C4CCC(NC(=O)CN(C)C5CC5)CC4)cc3c2C(C)C)cn2ncnc12` (stereo not drawn) [Example 143], the pIC50 is 8.70 on human TLR7, 4.56 against human TLR9 and 8.10 against human TLR8.
